From PMC6437697 (Journal of Medicinal Chemistry, 2019)

Legend:
Test in all cases: KINOMEscan
Assay type in all cases: binding
Conditions in all cases: read-out: % control activity remaining
FGFR3 = target: T1, FGFR3 (Homo sapiens, UniProt P22607)
T1 construct: purchased Eurofins DiscoverX KINOMEscan

CDKL3 = target: T2, CDKL3 (Homo sapiens, UniProt Q8IVW4)
T2 construct: purchased Eurofins DiscoverX KINOMEscan

LIMK2 = target: T3, LIMK2 (Homo sapiens, UniProt P53671)
T3 construct: purchased Eurofins DiscoverX KINOMEscan

AAK1 = target: T4, AAK1 (Homo sapiens, UniProt Q2M2I8)
T4 construct: purchased Eurofins DiscoverX KINOMEscan

SRMS = target: T5, SRMS (Homo sapiens, UniProt Q9H3Y6)
T5 construct: purchased Eurofins DiscoverX KINOMEscan

AXL = target: T6, AXL (Homo sapiens, UniProt P30530)
T6 construct: purchased Eurofins DiscoverX KINOMEscan
T6 sequence (P30530 26-894): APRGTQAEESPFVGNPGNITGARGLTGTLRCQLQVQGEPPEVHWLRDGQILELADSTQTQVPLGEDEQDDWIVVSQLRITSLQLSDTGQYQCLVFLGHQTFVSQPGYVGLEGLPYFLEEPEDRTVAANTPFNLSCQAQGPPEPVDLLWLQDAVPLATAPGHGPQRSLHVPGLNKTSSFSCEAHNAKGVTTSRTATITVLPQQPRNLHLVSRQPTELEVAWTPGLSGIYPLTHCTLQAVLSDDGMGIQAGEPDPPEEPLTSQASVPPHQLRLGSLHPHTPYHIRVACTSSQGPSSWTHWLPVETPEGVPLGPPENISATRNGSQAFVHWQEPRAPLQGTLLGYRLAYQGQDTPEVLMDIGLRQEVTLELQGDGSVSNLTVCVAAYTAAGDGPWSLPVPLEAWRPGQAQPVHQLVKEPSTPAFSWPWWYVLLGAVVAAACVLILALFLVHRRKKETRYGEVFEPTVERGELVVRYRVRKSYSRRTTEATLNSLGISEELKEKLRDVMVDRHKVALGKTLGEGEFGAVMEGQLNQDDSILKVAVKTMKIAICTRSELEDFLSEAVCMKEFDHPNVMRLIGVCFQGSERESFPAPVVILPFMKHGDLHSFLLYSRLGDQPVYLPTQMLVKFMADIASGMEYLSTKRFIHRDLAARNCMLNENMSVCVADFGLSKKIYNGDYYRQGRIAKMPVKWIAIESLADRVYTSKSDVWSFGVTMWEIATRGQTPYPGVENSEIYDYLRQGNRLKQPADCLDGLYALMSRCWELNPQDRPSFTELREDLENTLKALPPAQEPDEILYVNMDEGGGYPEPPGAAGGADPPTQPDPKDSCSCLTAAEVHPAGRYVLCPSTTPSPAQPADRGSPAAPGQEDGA

MET(Y1235D) = target: T7, MET(Y1235D) (Homo sapiens, UniProt P08581, Y1235D)
T7 construct: purchased Eurofins DiscoverX KINOMEscan

[1] = target: T8, ABL1(F317L)-phosphorylated (Homo sapiens, UniProt P00519, F317L)
T8 construct: purchased Eurofins DiscoverX KINOMEscan

MEK3 = target: T9, MEK3 (Homo sapiens, UniProt P46734)
T9 construct: purchased Eurofins DiscoverX KINOMEscan
T9 sequence (P46734 1-347): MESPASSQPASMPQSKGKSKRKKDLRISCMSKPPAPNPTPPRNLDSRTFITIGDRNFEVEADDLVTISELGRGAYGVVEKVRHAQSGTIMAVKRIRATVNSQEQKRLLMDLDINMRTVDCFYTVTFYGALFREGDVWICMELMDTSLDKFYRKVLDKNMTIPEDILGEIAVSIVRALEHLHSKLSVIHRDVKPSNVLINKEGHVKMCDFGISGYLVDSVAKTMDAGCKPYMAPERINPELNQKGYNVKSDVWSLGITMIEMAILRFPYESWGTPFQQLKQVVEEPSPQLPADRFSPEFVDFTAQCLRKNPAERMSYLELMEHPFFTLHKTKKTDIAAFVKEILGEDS

PRKD3 = target: T10, PRKD3 (Homo sapiens, UniProt O94806)
T10 construct: purchased Eurofins DiscoverX KINOMEscan
T10 sequence (O94806 1-890): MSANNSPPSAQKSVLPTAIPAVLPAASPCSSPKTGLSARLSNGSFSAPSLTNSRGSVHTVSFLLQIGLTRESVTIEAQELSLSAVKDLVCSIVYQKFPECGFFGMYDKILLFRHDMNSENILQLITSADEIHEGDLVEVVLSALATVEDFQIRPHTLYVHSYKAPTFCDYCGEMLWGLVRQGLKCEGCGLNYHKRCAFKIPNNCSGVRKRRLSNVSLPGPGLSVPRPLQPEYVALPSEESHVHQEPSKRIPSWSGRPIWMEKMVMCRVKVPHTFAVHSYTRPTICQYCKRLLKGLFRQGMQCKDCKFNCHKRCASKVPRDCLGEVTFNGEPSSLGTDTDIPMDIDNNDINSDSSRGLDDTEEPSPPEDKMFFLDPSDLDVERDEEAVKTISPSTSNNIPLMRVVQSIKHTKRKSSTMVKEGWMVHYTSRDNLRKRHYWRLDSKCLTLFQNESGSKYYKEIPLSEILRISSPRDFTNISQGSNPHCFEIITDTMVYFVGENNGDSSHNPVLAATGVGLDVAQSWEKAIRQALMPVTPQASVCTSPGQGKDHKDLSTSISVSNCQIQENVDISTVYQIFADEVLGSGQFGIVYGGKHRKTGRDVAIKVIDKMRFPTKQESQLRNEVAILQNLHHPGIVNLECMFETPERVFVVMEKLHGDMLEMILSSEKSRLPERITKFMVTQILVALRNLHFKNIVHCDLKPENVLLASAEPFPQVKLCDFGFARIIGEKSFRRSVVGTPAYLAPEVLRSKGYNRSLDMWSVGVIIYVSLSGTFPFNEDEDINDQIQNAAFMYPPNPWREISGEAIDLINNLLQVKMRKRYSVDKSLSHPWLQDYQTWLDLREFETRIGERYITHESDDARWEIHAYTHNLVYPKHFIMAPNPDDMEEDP

T4 sequence (Q2M2I8 whole entry): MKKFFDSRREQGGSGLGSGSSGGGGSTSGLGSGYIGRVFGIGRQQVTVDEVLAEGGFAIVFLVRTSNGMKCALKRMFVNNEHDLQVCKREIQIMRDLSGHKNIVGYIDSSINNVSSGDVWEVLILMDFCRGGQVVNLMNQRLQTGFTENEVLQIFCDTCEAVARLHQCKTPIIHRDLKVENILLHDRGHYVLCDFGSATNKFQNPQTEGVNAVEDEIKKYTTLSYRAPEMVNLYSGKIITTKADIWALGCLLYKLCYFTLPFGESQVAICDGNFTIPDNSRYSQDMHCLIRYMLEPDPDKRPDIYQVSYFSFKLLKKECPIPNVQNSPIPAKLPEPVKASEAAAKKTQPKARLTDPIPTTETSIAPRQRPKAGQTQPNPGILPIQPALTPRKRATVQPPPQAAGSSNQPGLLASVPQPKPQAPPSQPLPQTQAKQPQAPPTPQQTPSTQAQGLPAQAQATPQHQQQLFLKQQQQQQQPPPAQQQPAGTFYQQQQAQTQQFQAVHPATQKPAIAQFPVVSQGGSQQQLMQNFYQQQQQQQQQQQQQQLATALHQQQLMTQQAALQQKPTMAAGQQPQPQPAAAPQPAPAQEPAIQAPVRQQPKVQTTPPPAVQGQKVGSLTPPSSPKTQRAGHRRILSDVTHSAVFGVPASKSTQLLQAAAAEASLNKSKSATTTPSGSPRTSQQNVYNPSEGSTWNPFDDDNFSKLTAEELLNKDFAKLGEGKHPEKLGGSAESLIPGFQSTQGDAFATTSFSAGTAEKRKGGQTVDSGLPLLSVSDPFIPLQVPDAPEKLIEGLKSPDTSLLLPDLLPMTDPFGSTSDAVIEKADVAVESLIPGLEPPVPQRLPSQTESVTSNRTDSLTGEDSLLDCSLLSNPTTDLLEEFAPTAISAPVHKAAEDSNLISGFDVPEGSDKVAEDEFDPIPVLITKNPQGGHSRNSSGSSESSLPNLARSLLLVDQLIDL
T7 sequence (P08581 25-1390 Y1235D): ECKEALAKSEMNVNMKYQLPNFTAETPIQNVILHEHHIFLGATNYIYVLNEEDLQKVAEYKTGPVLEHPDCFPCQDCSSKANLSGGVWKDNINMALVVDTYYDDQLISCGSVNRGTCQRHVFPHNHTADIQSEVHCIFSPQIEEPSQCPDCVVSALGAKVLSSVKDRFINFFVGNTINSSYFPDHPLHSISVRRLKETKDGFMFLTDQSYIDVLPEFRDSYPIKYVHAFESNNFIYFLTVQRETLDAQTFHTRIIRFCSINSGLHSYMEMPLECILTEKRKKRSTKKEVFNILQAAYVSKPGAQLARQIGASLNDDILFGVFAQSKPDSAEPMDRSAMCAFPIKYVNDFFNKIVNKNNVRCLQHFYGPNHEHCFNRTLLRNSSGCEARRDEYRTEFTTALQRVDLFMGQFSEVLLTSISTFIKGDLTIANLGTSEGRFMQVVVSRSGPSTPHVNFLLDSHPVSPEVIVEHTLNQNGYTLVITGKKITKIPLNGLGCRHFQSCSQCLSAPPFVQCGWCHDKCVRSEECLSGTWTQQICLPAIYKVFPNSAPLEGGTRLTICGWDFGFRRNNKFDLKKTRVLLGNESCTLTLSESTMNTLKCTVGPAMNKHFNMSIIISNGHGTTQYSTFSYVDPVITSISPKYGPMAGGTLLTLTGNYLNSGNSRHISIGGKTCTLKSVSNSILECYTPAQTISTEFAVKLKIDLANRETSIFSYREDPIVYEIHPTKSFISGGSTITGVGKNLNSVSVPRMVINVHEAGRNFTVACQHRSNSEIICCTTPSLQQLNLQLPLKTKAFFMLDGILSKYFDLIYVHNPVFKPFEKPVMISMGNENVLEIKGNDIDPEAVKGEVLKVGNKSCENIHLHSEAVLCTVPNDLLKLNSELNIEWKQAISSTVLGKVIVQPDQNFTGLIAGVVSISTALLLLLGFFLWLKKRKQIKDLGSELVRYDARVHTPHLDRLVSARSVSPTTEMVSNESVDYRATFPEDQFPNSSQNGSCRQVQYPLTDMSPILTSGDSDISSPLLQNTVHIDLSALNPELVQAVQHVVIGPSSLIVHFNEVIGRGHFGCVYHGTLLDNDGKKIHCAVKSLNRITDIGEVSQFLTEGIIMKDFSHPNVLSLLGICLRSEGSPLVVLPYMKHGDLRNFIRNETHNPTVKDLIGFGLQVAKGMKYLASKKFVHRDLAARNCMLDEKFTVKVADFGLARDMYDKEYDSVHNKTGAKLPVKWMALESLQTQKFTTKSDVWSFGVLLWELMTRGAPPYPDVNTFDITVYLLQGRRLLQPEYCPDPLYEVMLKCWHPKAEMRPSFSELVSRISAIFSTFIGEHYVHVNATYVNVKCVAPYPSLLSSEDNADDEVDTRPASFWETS
T1 sequence (P22607 23-806): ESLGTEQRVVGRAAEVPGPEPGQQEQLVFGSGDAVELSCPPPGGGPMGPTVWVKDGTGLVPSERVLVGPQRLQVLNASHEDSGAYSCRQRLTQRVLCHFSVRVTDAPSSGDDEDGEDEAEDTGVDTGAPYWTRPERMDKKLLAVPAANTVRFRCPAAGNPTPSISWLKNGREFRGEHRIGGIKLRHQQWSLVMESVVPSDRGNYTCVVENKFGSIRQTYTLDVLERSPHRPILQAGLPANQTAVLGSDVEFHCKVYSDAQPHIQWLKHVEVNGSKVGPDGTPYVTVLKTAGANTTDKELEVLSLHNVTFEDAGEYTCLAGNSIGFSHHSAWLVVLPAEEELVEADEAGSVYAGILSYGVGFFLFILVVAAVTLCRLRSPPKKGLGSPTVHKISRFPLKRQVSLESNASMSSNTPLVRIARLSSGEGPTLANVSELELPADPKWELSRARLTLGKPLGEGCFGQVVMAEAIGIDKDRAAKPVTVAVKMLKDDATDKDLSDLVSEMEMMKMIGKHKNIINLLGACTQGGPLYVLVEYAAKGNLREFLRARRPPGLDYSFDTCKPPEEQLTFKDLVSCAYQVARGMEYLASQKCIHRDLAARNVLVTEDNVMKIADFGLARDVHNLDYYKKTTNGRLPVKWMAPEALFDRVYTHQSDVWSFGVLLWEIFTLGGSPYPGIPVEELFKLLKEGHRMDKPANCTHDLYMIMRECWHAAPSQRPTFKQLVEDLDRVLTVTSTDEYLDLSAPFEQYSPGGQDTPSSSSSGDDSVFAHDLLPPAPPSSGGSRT
T3 sequence (P53671 whole entry): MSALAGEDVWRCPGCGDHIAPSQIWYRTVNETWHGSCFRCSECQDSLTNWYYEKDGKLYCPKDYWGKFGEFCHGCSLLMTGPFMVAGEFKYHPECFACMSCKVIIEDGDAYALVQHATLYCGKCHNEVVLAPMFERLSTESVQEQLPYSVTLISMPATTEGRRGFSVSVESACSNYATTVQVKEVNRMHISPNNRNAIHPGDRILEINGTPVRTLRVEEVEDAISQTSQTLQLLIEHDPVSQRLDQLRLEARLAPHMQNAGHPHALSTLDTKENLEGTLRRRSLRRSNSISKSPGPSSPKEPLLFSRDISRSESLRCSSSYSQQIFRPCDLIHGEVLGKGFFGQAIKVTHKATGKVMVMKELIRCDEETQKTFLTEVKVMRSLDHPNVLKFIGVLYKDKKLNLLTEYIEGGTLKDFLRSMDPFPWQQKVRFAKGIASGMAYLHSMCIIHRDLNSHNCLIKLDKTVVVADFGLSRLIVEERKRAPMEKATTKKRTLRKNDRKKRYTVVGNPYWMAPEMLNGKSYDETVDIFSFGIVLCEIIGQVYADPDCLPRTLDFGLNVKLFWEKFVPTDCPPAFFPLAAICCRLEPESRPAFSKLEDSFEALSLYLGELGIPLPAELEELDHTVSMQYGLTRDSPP
T8 sequence (P00519 whole entry F317L): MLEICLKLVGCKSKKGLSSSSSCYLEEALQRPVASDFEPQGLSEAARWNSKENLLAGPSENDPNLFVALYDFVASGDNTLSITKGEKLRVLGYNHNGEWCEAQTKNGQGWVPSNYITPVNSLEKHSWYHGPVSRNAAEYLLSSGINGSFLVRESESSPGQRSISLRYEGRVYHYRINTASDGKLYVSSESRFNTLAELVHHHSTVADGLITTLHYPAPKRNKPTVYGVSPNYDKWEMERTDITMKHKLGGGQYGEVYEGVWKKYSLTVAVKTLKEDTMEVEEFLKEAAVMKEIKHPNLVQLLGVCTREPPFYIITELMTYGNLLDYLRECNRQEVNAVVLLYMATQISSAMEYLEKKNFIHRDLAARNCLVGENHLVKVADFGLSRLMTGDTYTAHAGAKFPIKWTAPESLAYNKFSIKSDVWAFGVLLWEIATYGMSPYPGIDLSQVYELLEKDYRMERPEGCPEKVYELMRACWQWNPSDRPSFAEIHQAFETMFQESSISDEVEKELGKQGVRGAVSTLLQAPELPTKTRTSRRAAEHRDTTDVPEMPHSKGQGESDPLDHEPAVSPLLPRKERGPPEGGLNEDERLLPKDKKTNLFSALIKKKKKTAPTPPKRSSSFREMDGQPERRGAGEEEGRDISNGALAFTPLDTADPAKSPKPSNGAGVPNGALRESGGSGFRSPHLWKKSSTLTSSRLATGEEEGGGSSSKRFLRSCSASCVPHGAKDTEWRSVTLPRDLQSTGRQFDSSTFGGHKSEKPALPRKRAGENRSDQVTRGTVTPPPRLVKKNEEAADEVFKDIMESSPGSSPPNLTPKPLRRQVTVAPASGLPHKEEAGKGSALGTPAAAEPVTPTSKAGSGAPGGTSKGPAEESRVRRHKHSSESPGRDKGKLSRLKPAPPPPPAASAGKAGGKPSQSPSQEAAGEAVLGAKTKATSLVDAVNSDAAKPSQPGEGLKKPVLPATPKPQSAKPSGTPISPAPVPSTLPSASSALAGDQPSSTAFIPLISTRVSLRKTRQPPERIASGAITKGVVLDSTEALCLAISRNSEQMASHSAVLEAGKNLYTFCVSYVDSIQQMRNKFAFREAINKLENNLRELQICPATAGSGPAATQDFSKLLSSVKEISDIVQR

SMILES | remaining binding at 1 µM (FGFR3) | remaining binding at 1 µM (CDKL3) | remaining binding at 1 µM (LIMK2) | remaining binding at 1 µM (AAK1) | remaining binding at 1 µM (SRMS) | remaining binding at 1 µM (AXL) | remaining binding at 1 µM (MET(Y1235D)) | remaining binding at 1 µM [1] | remaining binding at 1 µM (MEK3) | remaining binding at 1 µM (PRKD3)
Clc1cc(NCC2CC2)c2ncc(-c3ccc4[nH]ncc4c3)n2n1 [compound 2, 6-Chloro-N-(cyclopropylmethyl)-3-(1H-indazol-5-yl)imidazo[1,2-b]pyridazin-8-amine] | 90% | 100% | 94% | 39% | 91% | 84% | 100% | 60% | 87% | 98%
O=C(CN1CCOCC1)N[C@H]1CC[C@H](Nc2cc(Cl)nn3c(-c4ccc5[nH]ncc5c4)cnc23)CC1 [compound 26] | 94% | 88% | 85% | 28% | 86% | 88% | 97% | 6.2% | 100% | 94%
CN1CCC(CNc2cc(Cl)nn3c(-c4cc5nc(Nc6ccccc6)[nH]c5cc4F)cnc23)CC1 [compound 31, 6-Chloro-3-(6-fluoro-2-(phenylamino)-1H-benzo[d]imidazol-5-yl)-N-((1-methylpiperidin-4-yl)methyl)imidazo[1,2-b]pyridazin-8-amine] | 91% | 90% | 100% | 100% | 95% | 99% | 99% | 73% | 88% | 100%
